These results are taken from ChEMBL document CHEMBL5252654 (ACS Med Chem Lett, 2023).

In one data set the target is Phosphodiesterase 3 (Homo sapiens, UniProt Q14432+Q13370). The data set can be described thus: Inhibition of human recombinant PDE3 expressed in Escherichia coli.
Data set [1] concerns the target T1, Ribonuclease SLFN12 (Homo sapiens, UniProt Q8IYM2). The data set can be described thus: Binding affinity to SLFN12 (unknown origin) assessed as dissociation constant.
The target in data set [2] is T2, cGMP-inhibited 3',5'-cyclic phosphodiesterase 3A (Homo sapiens, UniProt Q14432). The data set can be described thus: Binding affinity to PDE3A (unknown origin) assessed as dissociation constant.
T2 sequence (Q14432 whole entry): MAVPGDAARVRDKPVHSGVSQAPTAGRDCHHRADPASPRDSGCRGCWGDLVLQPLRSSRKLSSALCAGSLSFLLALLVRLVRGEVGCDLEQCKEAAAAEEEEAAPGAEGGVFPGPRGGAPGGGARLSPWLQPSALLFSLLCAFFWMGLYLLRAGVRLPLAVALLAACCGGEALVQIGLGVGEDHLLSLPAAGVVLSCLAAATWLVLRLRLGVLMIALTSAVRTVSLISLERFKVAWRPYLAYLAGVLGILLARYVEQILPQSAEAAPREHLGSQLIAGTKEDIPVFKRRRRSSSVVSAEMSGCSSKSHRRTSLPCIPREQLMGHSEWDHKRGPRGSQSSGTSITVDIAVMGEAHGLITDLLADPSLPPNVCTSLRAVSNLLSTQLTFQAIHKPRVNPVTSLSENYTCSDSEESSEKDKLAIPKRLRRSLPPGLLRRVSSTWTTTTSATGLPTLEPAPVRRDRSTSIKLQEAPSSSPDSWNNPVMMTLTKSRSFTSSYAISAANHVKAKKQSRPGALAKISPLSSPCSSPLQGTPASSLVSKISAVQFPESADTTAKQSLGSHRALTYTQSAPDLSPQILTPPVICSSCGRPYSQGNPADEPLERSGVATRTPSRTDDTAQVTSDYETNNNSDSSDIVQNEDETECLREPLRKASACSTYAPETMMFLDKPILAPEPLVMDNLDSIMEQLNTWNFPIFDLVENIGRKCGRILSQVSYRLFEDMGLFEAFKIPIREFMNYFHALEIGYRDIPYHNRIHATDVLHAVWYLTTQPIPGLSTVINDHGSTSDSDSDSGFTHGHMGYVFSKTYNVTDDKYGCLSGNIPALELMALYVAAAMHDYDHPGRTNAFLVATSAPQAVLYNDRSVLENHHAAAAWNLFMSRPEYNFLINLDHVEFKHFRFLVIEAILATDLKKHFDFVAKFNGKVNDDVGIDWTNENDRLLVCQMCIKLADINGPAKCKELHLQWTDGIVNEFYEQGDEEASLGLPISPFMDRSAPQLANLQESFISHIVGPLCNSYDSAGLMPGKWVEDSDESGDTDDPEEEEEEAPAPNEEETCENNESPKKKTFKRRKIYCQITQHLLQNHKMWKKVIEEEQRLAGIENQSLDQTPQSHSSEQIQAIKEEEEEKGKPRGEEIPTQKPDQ
Data set [3] deals with T2, cGMP-inhibited 3',5'-cyclic phosphodiesterase 3A. The data set can be described thus: Inhibition of PDE3A (unknown origin).
The target of data set [4] is T3, cGMP-inhibited 3',5'-cyclic phosphodiesterase 3B (Homo sapiens, UniProt Q13370). The data set can be described thus: Binding affinity to human recombinant PDE3B expressed as Escherichia coli assessed as dissociation constant.
T3 sequence (Q13370 whole entry): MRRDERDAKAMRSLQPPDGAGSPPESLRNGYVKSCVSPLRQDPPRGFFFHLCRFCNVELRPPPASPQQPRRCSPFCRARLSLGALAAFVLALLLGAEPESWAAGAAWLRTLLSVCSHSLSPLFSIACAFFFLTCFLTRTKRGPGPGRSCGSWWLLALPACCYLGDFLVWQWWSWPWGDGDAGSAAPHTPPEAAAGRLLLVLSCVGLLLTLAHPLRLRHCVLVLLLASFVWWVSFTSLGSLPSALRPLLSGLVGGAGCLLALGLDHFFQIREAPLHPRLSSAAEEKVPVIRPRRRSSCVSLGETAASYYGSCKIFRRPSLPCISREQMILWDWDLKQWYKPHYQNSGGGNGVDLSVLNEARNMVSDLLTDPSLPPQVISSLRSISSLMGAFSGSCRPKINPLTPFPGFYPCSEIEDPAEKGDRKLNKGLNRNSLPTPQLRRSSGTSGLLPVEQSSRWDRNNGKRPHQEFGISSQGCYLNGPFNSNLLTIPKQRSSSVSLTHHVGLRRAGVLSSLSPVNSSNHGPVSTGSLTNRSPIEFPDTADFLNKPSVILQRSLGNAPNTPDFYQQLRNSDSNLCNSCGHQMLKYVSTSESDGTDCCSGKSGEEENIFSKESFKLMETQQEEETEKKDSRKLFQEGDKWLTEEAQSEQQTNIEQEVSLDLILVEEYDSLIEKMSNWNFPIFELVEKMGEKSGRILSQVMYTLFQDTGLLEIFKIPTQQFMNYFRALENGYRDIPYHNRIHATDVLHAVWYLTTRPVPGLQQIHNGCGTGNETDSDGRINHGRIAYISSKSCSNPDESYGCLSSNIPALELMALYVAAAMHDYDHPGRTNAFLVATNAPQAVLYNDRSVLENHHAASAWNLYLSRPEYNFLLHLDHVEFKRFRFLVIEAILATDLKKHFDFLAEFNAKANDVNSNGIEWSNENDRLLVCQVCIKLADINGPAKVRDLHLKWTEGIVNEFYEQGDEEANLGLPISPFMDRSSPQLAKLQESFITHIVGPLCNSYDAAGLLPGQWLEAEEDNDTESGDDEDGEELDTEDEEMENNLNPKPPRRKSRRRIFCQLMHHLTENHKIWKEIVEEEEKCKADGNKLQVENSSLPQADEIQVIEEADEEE
The target of data set [5] is T1, Ribonuclease SLFN12. The data set can be described thus: Binding affinity to human recombinant SLFN12 expressed as Escherichia coli assessed as dissociation constant.
Data set [6] concerns the target T3, cGMP-inhibited 3',5'-cyclic phosphodiesterase 3B. The data set can be described thus: Inhibition of PDE3B (unknown origin).
Data set [7] has as its system HeLa. The data set can be described thus: Cytotoxicity against human HeLa cells assessed as reduction in cell viability after 72 hrs by MTT assay. The data set is classed as functional, cell-based. On the technique in general: Tetrazolium assays rely on reduction of a dye to a coloured formazan, in cell work by metabolically active cells.
A short description of data set [8]: Antiplatelet activity against ADP-induced Wistar rat platelet aggregation assessed as inhibition of platelet aggregation. The data set is classed as functional, cell-based.
The nature of data set [9]: Antiplatelet aggregation activity in dog rich plasma assessed as reduction in ADP-induced platelet aggregation. The data set is classed as functional, cell-based. As to conditions: Canis lupus familiaris.
Data set [10] can be described thus: Antiplatelet activity in rabbit platelet rich plasma assessed as inhibition of thrombin-induced platelet aggregation. The data set is classed as functional, cell-based. The settings on record: Oryctolagus cuniculus.
Data set [11] in a line: Half life in Beagle dog at 0.29 to 4.86 mg/kg, po. The data set is classed as ADME, organism-based, Canis lupus familiaris. As to conditions: in vivo, dose 0.29-4.86 mg/kg.
Data set [12] is described as follows: Half life in Wistar rat at 0.29 to 4.86 mg/kg, po. The data set is classed as ADME, organism-based. The settings on record: in vivo, dose 0.29-4.86 mg/kg.
Data set [13] can be described thus: Antiplatelet aggregation activity in Sprague-Dawley rat platelet rich plasma assessed as reduction in ADP-induced platelet aggregation. The data set is classed as functional, cell-based.
For data set [14], the system named is HeLa. The data set can be described thus: Antiproliferative activity against human HeLa cells assessed as reduction in cell viability measured after 72 hrs by MTT assay. The data set is classed as functional, cell-based.
The nature of data set [15]: Antiplatelet activity in rabbit platelet rich plasma assessed as inhibition of arachidonic acid-induced platelet aggregation. The data set is classed as functional, cell-based. The settings on record: Oryctolagus cuniculus.
Data set [16] in a line: Antiplatelet activity in rabbit platelet rich plasma assessed as inhibition of collagen-induced platelet aggregation. The data set is classed as functional, cell-based. The settings on record: Oryctolagus cuniculus.
Data set [17] is described as follows: Antiplatelet activity in rabbit platelet rich plasma assessed as inhibition of antigen-antibody-induced platelet aggregation. The data set is classed as functional, cell-based. The settings on record: Oryctolagus cuniculus.
The nature of data set [18]: Inhibition of rhesus monkey blood platelet aggregation at 1 mg/kg, po. The data set is classed as functional. The settings on record: Macaca mulatta.
The nature of data set [19]: Antiplatelet aggregation activity in rhesus monkey platelet rich plasma assessed as reduction in collagen-induced platelet aggregation. The data set is classed as functional, cell-based. The settings on record: Macaca mulatta.
Data set [20] in a line: Antiplatelet aggregation activity in human rich plasma assessed as reduction in collagen-induced platelet aggregation. The data set is classed as functional, cell-based.
A short description of data set [21]: Antiplatelet aggregation activity in rabbit platelet rich plasma assessed as reduction in ADP-induced platelet aggregation. The data set is classed as functional, cell-based. As to conditions: Oryctolagus cuniculus.
Data set [22] can be described thus: Antiplatelet aggregation activity in rabbit platelet-rich plasma assessed as reduction in ADP-induced aggregation incubated for 5 mins by aggregometry. The data set is classed as functional, cell-based. As to conditions: Oryctolagus cuniculus.
A short description of data set [23]: Antiplatelet aggregation activity in Sprague-Dawley rat platelet rich plasma assessed as reduction in collagen-induced platelet aggregation. The data set is classed as functional, cell-based.
The nature of data set [24]: Inhibition of Rhesus monkey blood platelet aggregation at 4 mg/kg, po. As to conditions: Macaca mulatta. The data set is classed as functional.
For data set [25], the system named is HeLa. The data set can be described thus: Antiproliferative activity against human HeLa cells assessed as reduction in cell growth. The data set is classed as functional, cell-based.
Another data set has as its system Oryctolagus cuniculus. The data set can be described thus: Antithrombotic activity in New Zealand White biolaser-induced oral dosed rabbit model assessed as reduction in thrombus mass. The data set is classed as functional.
Data set [26] can be described thus: Antiplatelet aggregation activity in human rich plasma assessed as reduction in ADP-induced platelet aggregation. The data set is classed as functional, cell-based.
A short description of data set [27]: Antiplatelet aggregation activity in rhesus monkey platelet rich plasma assessed as reduction in ADP-induced platelet aggregation. The data set is classed as functional, cell-based. The settings on record: Macaca mulatta.
Data set [28] in a line: Antiproliferative activity against human QGY-7701 cells assessed as reduction in cell viability measured after 72 hrs by MTT assay. The data set is classed as functional, cell-based. The settings on record: QGY7701, 72 h.

T1 sequence (Q8IYM2 whole entry): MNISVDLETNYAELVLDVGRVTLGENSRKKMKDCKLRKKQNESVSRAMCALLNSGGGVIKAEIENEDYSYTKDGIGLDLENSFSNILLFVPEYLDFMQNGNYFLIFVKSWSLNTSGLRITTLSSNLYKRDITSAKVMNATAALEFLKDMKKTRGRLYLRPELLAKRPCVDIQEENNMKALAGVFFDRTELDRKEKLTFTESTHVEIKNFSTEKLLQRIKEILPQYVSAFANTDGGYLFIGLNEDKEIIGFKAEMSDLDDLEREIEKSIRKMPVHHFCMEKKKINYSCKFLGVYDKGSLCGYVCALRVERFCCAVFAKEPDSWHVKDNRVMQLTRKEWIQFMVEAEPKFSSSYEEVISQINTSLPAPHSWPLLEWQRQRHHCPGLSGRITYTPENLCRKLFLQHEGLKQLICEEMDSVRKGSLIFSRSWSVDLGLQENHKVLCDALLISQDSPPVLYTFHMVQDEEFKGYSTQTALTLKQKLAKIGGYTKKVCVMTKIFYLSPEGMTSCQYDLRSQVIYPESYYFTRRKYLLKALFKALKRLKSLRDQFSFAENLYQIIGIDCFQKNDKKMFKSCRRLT

As usually defined, the IC50 is the concentration that inhibits the measured activity by half. Take `CC1CC(=O)NN=C1c1ccc2c(c1)CCC(=O)N2C` (stereo unspecified): the IC50 on Phosphodiesterase 3 was determined as 90 nM.

One may read the Kd as the equilibrium constant for the complex coming apart. Consider `CCN(CC)c1ccc(C2=NNC(=O)C[C@H]2C)cc1[N+](=O)[O-]`, for which the dissociation constant Kd is 870 nM at Ribonuclease SLFN12 [1], 40 nM in data set [2], 320 nM in data set [4] and 65 nM on Ribonuclease SLFN12 [5]. Also, the IC50 in data set [3] is 25 nM; in data set [6], 100 nM.

The EC50 is the concentration needed to bring the measured effect to its halfway point. For the compound `O=C1CN2Cc3c(ccc(-c4ccc(Cl)cc4)c3Cl)N=C2N1`, in the data set on HeLa [7], the EC50 was 1.8 nM.

With `O=C1CN2Cc3c(ccc(Br)c3Cl)N=C2N1`, in the data set on HeLa [7], the EC50 turned out to be 2.53 nM.

With `O=C1CN2Cc3c(ccc(-c4ccoc4)c3Cl)N=C2N1`, the 50% effective concentration (EC50) with HeLa [7] was determined as 0.6 nM.

`C[C@@H]1OC(=O)NN=C1c1ccc(-c2ccc(F)cc2)c(C(F)(F)F)c1`: the concentration giving a half-maximal response (EC50) in the data set on HeLa [7] came out at 1.3 nM.

Consider `Cc1ccccc1-c1ccc2c(c1Cl)CN1CC(=O)NC1=N2`, for which the EC50 in the data set with HeLa [7] stood at 1.09 nM.

With `Cc1cccc(-c2ccc3c(c2Cl)CN2CC(=O)NC2=N3)c1`, the EC50 with HeLa [7] is 1.37 nM.

For `O=C1CN2Cc3c(Cl)cccc3N=C2N1`, the EC50 in the data set with HeLa [7] came out at 42.9 nM.

Consider `CCc1ccc(-c2ccc3c(c2Cl)CN2CC(=O)NC2=N3)cc1`, for which, in the data set on HeLa [7], the concentration for a half-maximal effect (EC50) amounted to 1.8 nM.

For `N#Cc1ccc(-c2ccc3c(c2Cl)CN2CC(=O)NC2=N3)cc1`, the EC50 with HeLa [7] is 2.38 nM.

With `O=C1NC2=Nc3ccc(Cl)c(Cl)c3CN2C1O` (stereo unspecified), on Phosphodiesterase 3, the IC50 turned out to be 32 nM. Besides, the EC50 in [8] was found to be 48 nM.

With `O=C1CN2Cc3c(ccc(F)c3Cl)N=C2N1`, the EC50 with HeLa [7] was found to be 34.2 nM.

As to `O=C1CN2Cc3c(ccc(-c4ccncc4)c3Cl)N=C2N1`, the EC50 in the data set on HeLa [7] came to 6.22 nM.

Take `O=C1CN2Cc3c(ccc(-c4ccccc4)c3Cl)N=C2N1`: in the data set with HeLa [7], the half-maximal effective concentration (EC50) was 0.56 nM.

Regarding `Cc1ccc(-c2ccc3c(c2Cl)CN2CC(=O)NC2=N3)cc1`, the EC50 in the data set with HeLa [7] was found to be 0.3 nM.

Turning to `O=C1CN2Cc3c(ccc(-c4ccc(O)cc4)c3Cl)N=C2N1`, the EC50 in the data set with HeLa [7] is 12.3 nM.

Turning to `O=C1CN2Cc3c(ccc(-c4ccsc4)c3Cl)N=C2N1`, the concentration for a half-maximal effect (EC50) in the data set on HeLa [7] turned out to be 1.77 nM.

As to `O=C1CN2Cc3c(cc(Cl)c(-c4ccccc4)c3Cl)N=C2N1`, the EC50 in the data set on HeLa [7] is 1.14 nM.

Usually half-life stands for the time needed for the level to fall by half in the phase considered. The term inhibition in vivo denotes the relative decrease from the control value, in per cent. As a reminder, the ED50 is the midpoint of the dose-response relation. Regarding `O=C1CN2Cc3c(ccc(Cl)c3Cl)N=C2N1` [ANAGRELIDE], the EC50 was found to be 310 nM in data set [9]; 700 nM in data set [10]; 270 nM in data set [13]; 5.12 nM in the data set with HeLa [14]; 6.67 nM in the data set with HeLa [7]; 390 nM in [15]. The EC50 worked out at 310 nM in [16]; 740 nM in [17]; 80 nM in data set [19]; 80 nM in [20]; 27 nM in [8]; 1200 nM in [21]. The EC50 in data set [22] was under 1 µg/mL; in data set [23] it was 150 nM; with HeLa [25], 4 nM; in data set [26] it was 400 nM; in data set [27], 500 nM. For the same compound, the results for the half-life in data set [11] and in [12] were 19 h and 7 h, respectively. The same compound registered an inhibition in vivo at 1 mg/kg in data set [18] of 24%. This compound yielded an inhibition in vivo at 4 mg/kg in data set [24] of 47%. Besides, in the data set with Oryctolagus cuniculus, the ED50 was 2.5 mg/kg.

With `O=C1CCc2cc(OCCCCc3nnnn3C3CCCCC3)ccc2N1` [CILOSTAZOL], the half-inhibitory concentration (IC50) at Phosphodiesterase 3 is 200 nM.

As for `C[C@]12CC[C@@H]3c4ccc(O)cc4CC[C@H]3[C@@H]1CC[C@@H]2O` [ESTRADIOL], in the data set with HeLa [7], the EC50 amounted to 0.7 nM.

Regarding `C[C@@H]1C(=O)NC2=Nc3cccc(Cl)c3CN21` [QUAZINONE], the IC50 on Phosphodiesterase 3 worked out at 580 nM.

As to `COc1cc(-c2ccc(=O)[nH]n2)ccc1OC(F)F` [ZARDAVERINE], the EC50 in data set [28] came out at 56.8 nM.
